Results from PMC6572064, “Discovery of 2-(1-(3-(4-Chloroxyphenyl)-3-oxo- propyl)pyrrolidine-3-yl)-1H-benzo[d]imidazole-4-carboxamide: A Potent Poly(ADP-ribose) Polymerase (PARP) Inhibitor for Treatment of Cancer” (Molecules, 2019).
Where two headings read alike, the source gives them in different places.

Tests used:
PARP-1 = target: T1, PARP-1 (Homo sapiens, UniProt P09874); test: PARP-1 inhibition assay (PARP-1 Chemiluminescent Assay Kit, BPS Bioscience); assay type: biochemical; settings: 10 nM compound
T1 construct: purchased BPS Bioscience 80569
Description: (§1) The PARP-1 and PARP-2 inhibition assays were performed in outsourcing, by a CRO company, Shanghai Medicilon Inc. (Shanghai, China). […] Briefly, PARP-1 or PARP-2 biotinylated substrate was incubated with compounds or solvent control at varying concentrations and an assay buffer containing the PARP-1 or PARP-2 enzyme.

PARP-2 = target: T2, PARP-2 (Homo sapiens, UniProt Q9UGN5); test: PARP-2 inhibition assay (PARP-2 Chemiluminescent Assay Kit, BPS Bioscience); assay type: biochemical; settings: 10 nM compound
T2 construct: purchased BPS Bioscience 80552
Description: as §1

[1] = test system: CAPAN-1 (a BRCA-2-mutated pancreatic cancer cell line); test: Cell proliferation assay, three-day, CellTiter-Glo, CAPAN-1; assay type: cell-based; settings: for inhibition at 0.00508 µM: CAPAN-1, 0.00508 uM; for inhibition at 0.0152 µM: CAPAN-1, 0.0152 uM; for inhibition at 0.0457 µM: CAPAN-1, 0.0457 uM; for inhibition at […]: CAPAN-1, 0.14 uM; for inhibition at 0.41 µM: CAPAN-1, 0.41 uM; for inhibition at 1.23 µM: CAPAN-1, 1.23 uM; for inhibition at 3.7 µM: CAPAN-1, 3.70 uM; for inhibition at 11.11 µM: CAPAN-1, 11.11 uM; for inhibition at 33.33 µM: CAPAN-1, 33.33 uM; for inhibition at 100 µM: CAPAN-1, 100.00 uM
Description: (§2) A three-day assay was conducted. A cell suspension was prepared. Cell density was counted by an automated cell counter and then diluted to the required density, according to seeding density. 50 μL cells were seeded into 384-well plate in growth medium according to the plate map. The cells were incubated at 37 °C, 5% CO2 overnight.
(§3) 200× compound solution in DMSO was prepared and diluted with growth medium to 26× final concentration by addition of 26 μL 200× compounds to 174 μL growth medium. Then 2 μL of diluted compound solution was added to cells and the cell was incubated at 37 °C, 5% CO2 for 72 h.
(§4) The assay plate was equilibrated to room temperature prior to measurement. 15 μL of CellTiter-Glo Reagent was added into each well and the contents were mixed for 2 min on an orbital shaker to induce cell lysis. The cells were incubated at room temperature for 60 min to stabilize luminescent signal. Luminescence was recorded on the Envision system.

[2] = test system: MDA-MB-436 (a BRCA-1-mutated breast cancer cell line); test: Cell proliferation assay, three-day, CellTiter-Glo, MDA-MB-436; assay type: cell-based; settings: for inhibition at 0.00508 µM / inhibition at 0.0152 µM / inhibition at 0.0457 µM / inhibition at 0.41 µM / inhibition at 1.23 µM / inhibition at 3.7 µM / inhibition at 11.11 µM / inhibition at 33.33 µM / inhibition at 100 µM / IC50: Homo sapiens; for inhibition at 0.00508 µM: MDA-MB-436, MDA-MB-436, Conc. 0.00508 uM; for inhibition at 0.0152 µM: MDA-MB-436, MDA-MB-436, Conc. 0.0152 uM; for inhibition at 0.0457 µM: MDA-MB-436, MDA-MB-436, Conc. 0.0457 uM; for inhibition at 0.41 µM: MDA-MB-436, MDA-MB-436, Conc. 0.41 uM; for inhibition at 1.23 µM: MDA-MB-436, MDA-MB-436, Conc. 1.23 uM; for inhibition at 3.7 µM: MDA-MB-436, MDA-MB-436, Conc. 3.70 uM; for inhibition at 11.11 µM: MDA-MB-436, MDA-MB-436, Conc. 11.11 uM; for inhibition at 33.33 µM: MDA-MB-436, MDA-MB-436, Conc. 33.33 uM; for inhibition at 100 µM: MDA-MB-436, MDA-MB-436, Conc. 100.00 uM
Description: as §2, §3, §4

[3] = Homo sapiens, replicate 1, read-out: Inh % 1
[4] = Homo sapiens, replicate 2, read-out: Inh % 2

T2 sequence (Q9UGN5 whole entry): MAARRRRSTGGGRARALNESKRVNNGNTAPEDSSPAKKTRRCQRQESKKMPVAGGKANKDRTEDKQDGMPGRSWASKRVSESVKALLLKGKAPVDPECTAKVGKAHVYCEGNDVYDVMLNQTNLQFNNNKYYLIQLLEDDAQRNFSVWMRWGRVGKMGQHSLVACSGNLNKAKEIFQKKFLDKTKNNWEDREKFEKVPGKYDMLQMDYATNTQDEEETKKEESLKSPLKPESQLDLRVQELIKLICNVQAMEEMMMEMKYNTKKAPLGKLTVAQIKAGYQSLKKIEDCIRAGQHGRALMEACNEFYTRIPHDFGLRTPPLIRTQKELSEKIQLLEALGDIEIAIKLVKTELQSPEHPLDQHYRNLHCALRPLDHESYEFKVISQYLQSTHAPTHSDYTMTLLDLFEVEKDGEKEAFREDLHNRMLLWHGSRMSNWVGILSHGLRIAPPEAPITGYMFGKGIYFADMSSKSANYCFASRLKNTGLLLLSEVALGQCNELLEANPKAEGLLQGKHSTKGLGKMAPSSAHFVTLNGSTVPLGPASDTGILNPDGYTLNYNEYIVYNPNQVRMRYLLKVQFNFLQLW
T1 sequence (P09874 whole entry): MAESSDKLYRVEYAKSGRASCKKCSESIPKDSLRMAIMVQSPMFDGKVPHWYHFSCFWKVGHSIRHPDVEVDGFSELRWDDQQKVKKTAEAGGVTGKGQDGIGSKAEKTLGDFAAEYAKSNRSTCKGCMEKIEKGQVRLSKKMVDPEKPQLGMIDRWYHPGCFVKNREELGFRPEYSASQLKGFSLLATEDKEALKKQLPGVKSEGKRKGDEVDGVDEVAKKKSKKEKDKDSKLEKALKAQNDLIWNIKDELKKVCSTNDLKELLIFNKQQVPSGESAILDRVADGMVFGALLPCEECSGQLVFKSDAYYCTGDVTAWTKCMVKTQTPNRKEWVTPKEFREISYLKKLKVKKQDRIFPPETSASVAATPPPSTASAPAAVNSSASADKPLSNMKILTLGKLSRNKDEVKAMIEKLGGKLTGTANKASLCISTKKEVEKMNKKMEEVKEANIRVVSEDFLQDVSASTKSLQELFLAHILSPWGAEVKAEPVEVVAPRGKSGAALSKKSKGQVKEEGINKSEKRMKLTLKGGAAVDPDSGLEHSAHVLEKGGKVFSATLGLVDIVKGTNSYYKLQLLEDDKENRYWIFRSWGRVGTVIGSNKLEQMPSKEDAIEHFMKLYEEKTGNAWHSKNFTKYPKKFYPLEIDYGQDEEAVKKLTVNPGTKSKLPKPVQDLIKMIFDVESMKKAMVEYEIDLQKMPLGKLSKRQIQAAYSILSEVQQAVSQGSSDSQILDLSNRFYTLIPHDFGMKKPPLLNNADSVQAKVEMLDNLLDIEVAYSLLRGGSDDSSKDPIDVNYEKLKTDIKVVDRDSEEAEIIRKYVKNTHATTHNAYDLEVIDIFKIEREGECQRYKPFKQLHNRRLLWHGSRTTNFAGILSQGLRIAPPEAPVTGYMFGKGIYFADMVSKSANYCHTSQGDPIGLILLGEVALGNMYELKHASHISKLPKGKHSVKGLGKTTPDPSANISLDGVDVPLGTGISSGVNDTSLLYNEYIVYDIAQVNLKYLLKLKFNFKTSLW

inhibition at 0.01 µM (PARP-1; supplement sheet, read-out: 10 nM inhibition% PAPR-1): 19.9% | inhibition at 0.01 µM (PARP-1; read-out: PARP-1 Inhibition % (10 nM)): 19.9% | inhibition at 0.01 µM (PARP-2; supplement sheet, read-out: 10 nM inhibition% PAPR-2): 41.2% | inhibition at 0.01 µM (PARP-2; read-out: PARP-2 Inhibition % (10 nM)): 41.2% | IC50 ([1]; Homo sapiens, CAPAN-1, 72 h, CellTiter-Glo, read-out: CAPAN-1 IC50): > 100 µM | IC50 ([2]; MDA-MB-436, 72 h, CellTiter-Glo, read-out: MDA-MB-436 IC50): 90.4 µM | IC50 ([2]; MDA-MB-436, 72 h, supplement Summary sheet, read-out: IC50): 90.4 µM | IC50 ([2]; MDA-MB-436, curve fit list, no unit in the cell, concentration in uM, read-out: IC50): 90.4 µM
Structure (SMILES): NC(=O)c1cccc2[nH]c(C3CCN(CCC(=O)Nc4ccccc4)C3)nc12 (centres unmarked) [Compound 5cb, 2-(1-(3-Oxo-3-(Phenylamino)propyl)pyrrolidin-3-yl)-1H-benzo[d]imidazole-4-carboxamide]
LogIC50 ([1]; CAPAN-1, curve-fit output, Log (uM)): 2.189 | inhibition at 0.00508 µM [1, 3]: -8% | inhibition at 0.00508 µM [1, 4]: 3.3% | inhibition at 0.0152 µM [1, 3]: 3.4% | inhibition at 0.0152 µM [1, 4]: 17% | inhibition at 0.0457 µM [1, 3]: -4.1% | inhibition at 0.0457 µM [1, 4]: 5.6% | inhibition at […] [1, 3]: -2% | inhibition at […] [1, 4]: 2.2% | inhibition at 0.41 µM [1, 3]: 10.3% | inhibition at 0.41 µM [1, 4]: 6.1% | inhibition at 1.23 µM [1, 3]: 12.4% | inhibition at 1.23 µM [1, 4]: -0.64% | inhibition at 3.7 µM [1, 3]: 11.2% | inhibition at 3.7 µM [1, 4]: 9.9% | inhibition at 11.11 µM [1, 3]: 5% | inhibition at 11.11 µM [1, 4]: -4.1% | inhibition at 33.33 µM [1, 3]: 3.6% | inhibition at 33.33 µM [1, 4]: 21.6% | inhibition at 100 µM [1, 3]: 39.1% | inhibition at 100 µM [1, 4]: 32% | inhibition at 0.00508 µM ([2]; replicate 1, read-out: Inh % 1): 0.0167% | inhibition at 0.00508 µM ([2]; replicate 2, read-out: Inh % 2): -6.8% | inhibition at 0.0152 µM ([2]; replicate 1, read-out: Inh % 1): -5.6% | inhibition at 0.0152 µM ([2]; replicate 2, read-out: Inh % 2): -10.5% | inhibition at 0.0457 µM ([2]; replicate 1, read-out: Inh % 1): -12.9% | inhibition at 0.0457 µM ([2]; replicate 2, read-out: Inh % 2): -11.3% | inhibition at 0.41 µM ([2]; replicate 1, read-out: Inh % 1): -10% | inhibition at 0.41 µM ([2]; replicate 2, read-out: Inh % 2): -14% | inhibition at 1.23 µM ([2]; replicate 1, read-out: Inh % 1): -9.6% | inhibition at 1.23 µM ([2]; replicate 2, read-out: Inh % 2): -14.7% | inhibition at 3.7 µM ([2]; replicate 1, read-out: Inh % 1): -9.8% | inhibition at 3.7 µM ([2]; replicate 2, read-out: Inh % 2): -10.5% | inhibition at 11.11 µM ([2]; replicate 1, read-out: Inh % 1): -2.5% | inhibition at 11.11 µM ([2]; replicate 2, read-out: Inh % 2): -1.6% | inhibition at 33.33 µM ([2]; replicate 1, read-out: Inh % 1): 9.7% | inhibition at 33.33 µM ([2]; replicate 2, read-out: Inh % 2): 9.8% | inhibition at 100 µM ([2]; replicate 1, read-out: Inh % 1): 58.3% | inhibition at 100 µM ([2]; replicate 2, read-out: Inh % 2): 40% | LogIC50 ([2]; MDA-MB-436, curve fit on Log (uM) concentrations): 1.956 | Bottom ([2]; MDA-MB-436, curve fit parameter (Inh %)): -10.26 | Top ([2]; MDA-MB-436, curve fit parameter (Inh %), '= 100.0' is a constrained value): = 100.0
